Results on 18 compounds are retold here after patent publication US12612358B2, “Resorcinol-based compounds and uses thereof” (priority 2020, dated 2026).

One series deals with PANC-1. Description: CellTiter-Glo cell proliferation, PANC-1 pancreatic cancer cells. It is filed as cell-based, human. The settings on record: Homo sapiens; PANC-1 (by context); read-out: IC50, inhibition of cell viability/proliferation. The text has this: Cell culture and treatment of pancreatic cancer cell lines: Pancreatic cancer cells lines BxPC-3, SW1990, and PANC-1 used in the experiments presented herein can be obtained from ATCC. The cells can be cultured and passaged in complete growth medium (RPMI-1640, Dulbecco's Modified Eagle Medium, or Leibovitz's L-15 medium) that has been supplemented with fetal bovine serum to a final concentration of 10%.
Effects of Compound-5B on proliferation and Id-1 expression in pancreatic cell lines. Compound-5B was next tested for inhibition of cell viability/proliferation in the three pancreatic cancer cell lines and two primary patient-derived cancer cell lines. Compound-5B inhibited cell viability/proliferation of all the cancer cell lines (Table 2). The culturing condition for the pancreatic cell lines was similar to those used in the breast cancer lines, with the exception of the primary patient-derived pancreatic cancer cell lines (PANC9 and PANC13). For determining inhibition of cell proliferation in patient-derived pancreatic cancer cells were cultured in a T75 ultra low attachment flasks with DMEM/F12 media supplemented with B27, penicillin/streptomycin (10,000 u/mL), 50 µg/mL human epidermal growth factor (hEGF), 50 μg/mL human fibroblast growth factor, and 5 μg/mL heparin. Cells were plated in a 384-well plate and incubated for three days to promote the formation of tumorspheres. Cells were then treated with Compound-5B for three days. Cell proliferation of pancreatic cells in the presence of drug was measured using the CellTiter-Glo luminescent Assay and IC50 values were calculated (Table 2). The IC50 and corresponding 95% confidence limits (CL) were calculated using non-linear regression analysis.

The test system of the next series is MDA-MB231 D3H. As to the kind of experiment: CellTiter-Glo viability/proliferation assay, MDA-MB231 breast cancer cells. It is filed as cell-based. The settings on record: Homo sapiens, MDA-MB-231, 48 h, read-out: Inhibition of MDA-MB231 D3H.
The next series deals with SKOv3 (ovarian). Description: Cell proliferation, SKOv3 ovarian cancer cells. The format is cell-based. The conditions noted are these: Homo sapiens, SK-OV-3, read-out: IC50 category. The text has this: Effects of Compound-5B on cell proliferation in additional cancer cells: To determine whether Compound-5B would have broad based anticancer activity, we study whether Compound-5B would be effective at inhibiting cell proliferation in a variety of cancers overexpressing Id-1. The assay conditions used were identical to those presented for breast and pancreatic cancers. Indeed, Compound-5B was potent at inhibiting cell proliferation in blood cancer (leukemia), glioblastoma, prostate, and ovarian cancer.

For another series, the system named is PANC-1 tumors. As to the kind of experiment: PANC-1 subcutaneous xenograft in athymic nu/nu mice. It is filed as in vivo. The settings on record: PANC-1 tumor mice; Compound-5B 10 mg/kg i.p. daily, gemcitabine 50 mg/kg i.p. three times a week.
[1] abbreviates: CellTiter-Glo, two-day treatment.

Read-outs that look alike come from different tables or passages of the source.

For the compound `C=C(C)[C@@H]1CCC(C)=C[C@H]1c1c(O)cc(CCCCC)cc1O` [CBD, cannabidiol, reference compound], in the series on PANC-1, the IC50 turned out to be 1900 nM. Consider `CCCCCCC(C)(C)c1cc(O)c(C(=O)NC2CCCCC2)c(O)c1` [Compound 5A, N-cyclohexyl-2,6-dihydroxy-4-(2-methyloctan-2-yl)benzamide], for which the IC50 in the series on MDA-MB231 D3H was less than 500 nM. Consider `CCCCCCC(C)(C)c1cc(O)c(C(=O)Nc2ccccn2)c(O)c1` [Compound 5C, 2,6-dihydroxy-4-(2-methyloctan-2-yl)-N-(cyridin-2-yl) benzamide], for which the IC50 in the series with MDA-MB231 D3H (setting [1]) was less than 500 nM. In the case of `CCCCCCC(C)(C)c1cc(O)c(C(=O)Nc2ccncn2)c(O)c1` [Compound 5D, 2,6-dihydroxy-4-(2-methyloctan-2-yl)-N-(pyrimidin-4-yl)benzamide], in the series with MDA-MB231 D3H (setting [1]), the IC50 is less than 500 nM. As to `CCCCCCC(C)(C)c1cc(O)c(C(=O)N(C)c2ccccc2)c(O)c1` [Compound 5E, 2,6-dihydroxy-N-methyl-4-(2-methyloctan-2-yl)-N-phenylbenzamide], the IC50 was in the range of 1000 to 5000 nM in the series on MDA-MB231 D3H and 500 to 1000 nM in the series on SKOv3 (ovarian). For `CCCCCCC(C)(C)c1cc(O)c(C(=O)Nc2ccc(N3CCN(C)CC3)cc2)c(O)c1` [Compound 5F, 2,6-dihydroxy-4-(2-methyloctan-2-yl)-N-(4-(4-methylpiperazin-1-yl)phenyl)benzamide], the IC50 with MDA-MB231 D3H (setting [1]) was greater than 15000 nM. On the same count and under the same terms, with `CCCCCCC(C)(C)c1cc(O)c(C(=O)Nc2cccc(N3CCN(C)CC3)c2)c(O)c1` [Compound 5G, 2,6-dihydroxy-4-(2-methyloctan-2-yl)-N-(3-(4-methylpiperazin-1-yl)phenyl)benzamide] the figure was 1000 to 5000 nM; with `CCCCCCC(C)(C)c1cc(O)c(C(=O)Nc2ccccc2N2CCN(C)CC2)c(O)c1` [Compound 5H, 2,6-dihydroxy-4-(2-methyloctan-2-yl)-N-(2-(4-methylpiperazin-1-yl)phenyl)benzamide], 500 to 1000 nM; with `CCCCCCC(C)(C)c1cc(O)c(C(=O)Nc2ccc(N3CCOCC3)cc2)c(O)c1` [Compound 5I, 2,6-dihydroxy-4-(2-methyloctan-2-yl)-N-(4-morpholinophenyl)benzamide], less than 500 nM. With `CCCCCCC(C)(C)c1cc(O)c(C(=O)Nc2cccc(N3CCOCC3)c2)c(O)c1` [Compound 5J, 2,6-dihydroxy-4-(2-methyloctan-2-yl)-N-(3-morpholinophenyl)benzamide], the IC50 with MDA-MB231 D3H (setting [1]) is less than 500 nM. Regarding `CCCCCCC(C)(C)c1cc(O)c(C(=O)Nc2ccccc2N2CCOCC2)c(O)c1` [Compound 5K, 2,6-dihydroxy-4-(2-methyloctan-2-yl)-N-(2-morpholinophenyl)benzamide], in the series on MDA-MB231 D3H (setting [1]), the IC50 is less than 500 nM. Same read-out and setting: to `CCCCCc1cc(O)c(C(=O)Nc2ccccc2)c(O)c1` [Compound 11, 2,6-dihydroxy-4-pentyl-N-phenylbenzamide] belongs less than 500 nM.

On to `CC(C)(c1ccccc1)c1cc(O)c(C(=O)NC2CCCCC2)c(O)c1` [Compound 17A, N-cyclohexyl-2,6-dihydroxy-4-(2-phenylpropan-2-yl)benzamide], for which the IC50 in the series on MDA-MB231 D3H lay within 500 to 1000 nM. For the compound `CC(C)(c1ccccc1)c1cc(O)c(C(=O)Nc2ccccc2)c(O)c1` [Compound 17B, 2,6-dihydroxy-N-phenyl-4-(2-phenylpropan-2-yl)benzamide], the IC50 in the series with MDA-MB231 D3H (setting [1]) was less than 500 nM. For the compound `CC(C)(c1cc(O)c(C(=O)Nc2ccccc2)c(O)c1)C1CCCCC1` [Compound 17C, 4-(2-cyclohexylpropan-2-yl)-2,6-dihydroxy-N-phenylbenzamide], in the series on MDA-MB231 D3H, the IC50 is less than 500 nM.

Consider `CC(C)(c1cc(O)c(C(=O)Nc2ccccn2)c(O)c1)C1CCCCC1` [Compound 17D, 4-(2-cyclohexylpropan-2-yl)-2,6-dihydroxy-N-(pyridin-2-yl)benzamide], for which the IC50 in the series with MDA-MB231 D3H was less than 500 nM. Consider `CC(C)(CCCCN1CCOCC1)c1cc(O)c(C(=O)Nc2ccccc2)c(O)c1` [Compound 26A, 2,6-dihydroxy-4-(2-methyl-6-morpholinohexan-2-yl)-N-phenylbenzamide], for which the IC50 in the series on MDA-MB231 D3H (setting [1]) lay within 1000 to 5000 nM. For `Nc1ccn([C@@H]2O[C@H](CO)[C@@H](O)C2(F)F)c(=O)n1` [gemcitabine, reference compound], the “weight loss (metric of drug toxicity)” value in the series with PANC-1 tumors was “significant weight loss”.
